According to patent publication US10106565B2 (priority 2008, dated 2018):

How the values were obtained:
CD4 T lymphocytes = assay: Proliferation of CD4 T lymphocytes in PBMC induced by IL2 (CFSE dilution, flow cytometry); assay type: cell-based, human; conditions: 20 μM dendrimer; PBMC with IL2; IL2 alone gives 70.2%
Experimental: Peripheral blood samples are obtained from adult healthy volunteers through the Etablissement Français du Sang (Toulouse, France). Peripheral Blood Mononuclear Cells (PBMC) are isolated by Ficoll density gradient (Amersham Biosciences AB).
PBMC are cultured at a final concentration of 1.5×10^6 cells/mL in complete RPMI 1640 medium, i.e. supplemented with 10% of heat inactivated fetal calf serum (FCS) (Invitrogen), 1 mM sodium pyruvate (Invitrogen), 2 mM L-glutamine, 100 U/mL penicillin and 100 μg/mL streptomycin (Cambrex Bioscience). Proliferation is activated by 400 U/mL of interleukin 2 (IL2) (Sanofi-Aventis) (a “growth factor” for lymphocytes). […]
Proliferation of CD4 T lymphocytes is evaluated by flow cytometry by analyzing the intracellular dilution of a fluorescent probe: the 5,6-carboxyfluorescein diacetate N-succinimidylester (CFSE). […] Then, CFSE dilution is analyzed by flow cytometry to measure the proliferation CD4 T cells. After gating for CD4 positive cells (mouse anti-human CD4-PE-Cy5 clone 13B8.2, Beckman-Coulter), CFSE fluorescence intensities are analyzed, and the percentage of CD4 T cells which have proliferated during the culture is taken into account. […] The overall differences are evaluated by analysis of variance test (ANOVA) with Sigma Stat software (Systat Software).

[1] = tested on: purified CD4 T lymphocytes; assay type: cell-based, human; conditions: 20 μM dendrimer; anti-CD3/anti-CD28 microbeads and IL2; without dendrimer 88%
Experimental: PBMC from adult healthy volunteers are prepared as described in example 5.1.
CD4 T lymphocytes are then purified from PBMC by positive selection using microbeads conjugated with anti-CD4 mAb, according to the manufacturer's instructions (Miltenyi Biotec). The cells obtained after the purification are >98% pure (as verified by flow cytometry).
Purified CD4 T lymphocytes are cultured at a final concentration of 1.5×10^6 cells/mL in complete RPMI 1640 medium (as described in example 5.1). Then, their proliferation is triggered by microbeads coated with anti-CD3 and anti-CD28 mAbs (Dynabeads®, Dynal Biotech ASA). Dendrimer Gc1 and its analogs are made soluble in sterile water at 2 mM and filtered through a 0.2 μm membrane before use at 20 μM in culture.
Proliferation of purified CD4 T lymphocytes is evaluated by flow cytometry by analyzing the intracellular dilution of a fluorescent probe: the CFSE.

human monocytes = assay: Quantitative RT-PCR of mRNA expression in dendrimer-activated monocytes; assay type: cell-based; conditions: 20 μM, 6 hours; da-monocytes vs untreated monocytes, 6 donors
Experimental: For genechip analysis, 10×10^6 monocytes from 3 donors (and from 3 more donors for quantitative PCR) are cultured in 25 cm^2 dishes. They are stimulated with 20 μM of dendrimer for 6 hours or remain untreated (control cells).
Total RNA are purified as described above, and 5 μg are used to synthesize single-strand cDNA using M-MLV reverse transcriptase RNase H Minus (Promega), according to the manufacturer's instructions. Quantitative RT-PCR is then performed using the Platinium SYBR Green qPCR SuperMix UDG (Invitrogen) with forward and reverse primers at a final concentration of 300 nM. The primers are designed using Primer Express software from mRNA sequences submitted to Ensembl data base, and are listed in FIG. 7. Quantification of the different mRNA is performed on a 7000 Sequence Detection System (Applied Biosystems). PCR amplification begins with 1 cycle of 50° C. for 2 minutes and 95° C. for 10 minutes, followed with 40 cycles of denaturation at 95° C. for 15 seconds and annealing/extension at 60° C. for 60 seconds. All experiments are performed in duplicate. For each donor, the relative expression is calculated as 2^−ΔΔCt where ΔΔCt is the difference between ΔCt of the sample and the ΔCt of the reference consisting of the control monocytes. ΔCt is the difference between the Ct of the target gene and the GAPDH gene. For statistical analysis, a one-tailed paired t test is performed comparing the ΔCt values for the da-monocytes and the corresponding control monocytes with Sigma Stat software (Systat Software).

IL-1ra−/− mice = assay: Spontaneous arthritis in IL-1ra-/- mice; assay type: in vivo; conditions: 10 mg/kg weekly intravenous from 8 weeks of age; at the age of 15 weeks
Source text: Dendrimer ABP (azabisphosphonate) or Gc1 (FIG. 16A) was initially compared to two other dendrimer-based systems, dendrimer azamonophosphonate (AMP) and dendrimer polypropyleneimine (PPI), for antiarthritic activity in mice, according to the following protocole, described by Hayder et al. Science Transl. Med. 2011, 3, 81ra35.
IL-1ra−/− mice develop spontaneous arthritis beginning at 4 weeks of age. By 10 weeks, 100% of mice show full-blown disease, with marked paw swelling. We assessed the effect of dendrimers ABP, AMP, and PPI in this model of arthritis via weekly intravenous injections (10 mg/kg) starting at 8 weeks of age. The evolution of inflammation and arthritis was followed by measuring the hind paw swelling and by clinical arthritic score. The arthritic score per animal was the sum of the scores attributed to the four paws (28).

[2] = tested on: mice immunized against myelin oligodendrocyte protein peptide 35-55; assay: Experimental Autoimmune Encephalomyelitis (EAE) mouse model; assay type: in vivo; conditions: 45 days post-immunization, control about 4
Source text: Experimental Autoimmune Encephalomyelitis (EAE) is an inflammatory disease of the Central Nervous System (CNS) that shares clinical and immunopathological similarities with Multiple Sclerosis (MS). The model we have chosen is the classical model of active EAE induced by an immunization against myelin oligodendrocyte protein (MΦG) peptide 35-55 in mice. This leads to a chronic-progressive form of EAE resembling MS. Therefore, it is considered as a good model. Disease severity is scored on a clinical scale of 0 to 5 (0 being no detectable sign of EAE, 4 being tetraparalysis and 5 moribund or death). After MΦG-immunization, EAE scores for motor functions have been evaluated daily for 45 days for each animal. A preventive protocol (FIG. 17A) and a therapeutic protocol (FIG. 17B) have been tested. In both cases, mice are immunized with the MΦG peptide at Day 0 (first arrow of FIGS. 17A and 17B, corresponding to day 0 post-immunization). In the preventive protocol, intravenous administration of 10 mg/kg of dendrimer ABP started at Day 1 (FIG. 17A, second arrow, corresponding to 1 day post-immunization) and then every three days. In the therapeutic protocol, administration of ABP started once the disease is established at Day 18 (FIG. 17B, second arrow, corresponding to 18 days post-immunization), in the same conditions as the preventive protocol.

Question: Which “CD4 T lymphocytes that have divided” value (CD4 T lymphocytes) does the source give for `CN(/N=C/c1ccc(OP2(Oc3ccc(/C=N/N(C)P(=S)(Oc4ccc(CCN(CP(=O)(O)O)CP(=O)(O)O)cc4)Oc4ccc(CCN(CP(=O)(O)O)CP(=O)(O)O)cc4)cc3)=NP(Oc3ccc(/C=N/N(C)P(=S)(Oc4ccc(CCN(CP(=O)(O)O)CP(=O)(O)O)cc4)Oc4ccc(CCN(CP(=O)(O)O)CP(=O)(O)O)cc4)cc3)(Oc3ccc(/C=N/N(C)P(=S)(Oc4ccc(CCN(CP(=O)(O)O)CP(=O)(O)O)cc4)Oc4ccc(CCN(CP(=O)(O)O)CP(=O)(O)O)cc4)cc3)=NP(Oc3ccc(/C=N/N(C)P(=S)(Oc4ccc(CCN(CP(=O)(O)O)CP(=O)(O)O)cc4)Oc4ccc(CCN(CP(=O)(O)O)CP(=O)(O)O)cc4)cc3)(c3ccc(/C=N/N(C)P(=S)(Oc4ccc(CCN(CP(=O)(O)O)CP(=O)(O)O)cc4)Oc4ccc(CCN(CP(=O)(O)O)CP(=O)(O)O)cc4)cc3)=N2)cc1)P(=S)(Oc1ccc(CCN(CP(=O)(O)O)CP(=O)(O)O)cc1)Oc1ccc(CCN(CP(=O)(O)O)CP(=O)(O)O)cc1` (stereo not drawn) [Gc1] here?
Answer: Its value is 17.2%.

Question: And the “purified CD4 T lymphocytes that have divided” value [1]?
Answer: Its value is 10.2%.

Question: What about the “mRNA expression of CCL5” value (human monocytes) of the same compound?
Answer: The value was “significantly under-expressed”.

Question: And the “mRNA expression of alternative activation genes MRC1, IL1 RN, IL10, CCL18 and CD23” value (human monocytes)?
Answer: Its value is “significantly up-regulated”.

Question: And the “mRNA expression of classical activation genes IL1β, IL6 and IL12” value (human monocytes)?
Answer: Its value is “not significantly modified”.

Question: And the arthritic score (IL-1ra−/− mice)?
Answer: Its arthritic score is “significant decrease”.

Question: And the paw swelling (IL-1ra−/− mice)?
Answer: The paw swelling was “significant decrease”.

Question: And the “disease severity clinical score (EAE, scale 0 to 5)” value ([2]; preventive protocol: 10 mg/kg intravenous from Day 1, every three days)?
Answer: Its value is “less than 1”.

Question: And the “disease severity clinical score (EAE, scale 0 to 5)” value ([2]; therapeutic protocol: 10 mg/kg intravenous from Day 18, every three days)?
Answer: Its value is “about 1”.
